Test results: patent US9752175B2, “Systems and methods to detect biofilm streamer growth and their uses” (The Trustees of Princeton University, priority 2014, dated 2017)

Tested on: Pseudomonas aeruginosa PA14
Experiment: Microfluidic pressure-driven flow assay (biofilm streamer clogging)
Format: cell-based
Details: low concentration of tetracycline; microfluidic channel
Procedure: Overnight P. aeruginosa cultures were backdiluted 1:100 in tryptone broth and grown to midlogarithmic phase (OD600=0.5). This culture (100 mL) was used to fill a reservoir connected via Tygon tubing (inner diameter 2.4 mm) to a microfluidic channel made from polydimethylsiloxane (PDMS) (Sylgard 184, Dow Corning). The channels (FIG. 1A) are 90 μm high, 200 μm wide, and constitute the narrowest part of the experimental flow system. Analogous to the inlet, the outlet of the microfluidic channel is also connected to Tygon tubing, and the effluent culture is collected in a dish on an analytical balance. By changing the elevation of the culture reservoir above the effluent collection dish, the applied pressure difference Δp is altered, which alters the flow rate through the channel. Operating this system for 24 h with H2O at a flow rate of 15.7±0.05 μL/min reduced the liquid level in the reservoir to decrease the pressure drop across the channel by 2.1%. […]
The weight of the effluent culture was measured every 4 s on an analytical balance (GD503, Sartorius), controlled with LabVIEW. […]
where the density was assumed to be the density of water, 1 kg/L. T and τ were calculated by fitting the function
[formula] to the measured flow rate Q(t), where Q0 is the flow rate before the clogging transition. […]

SMILES: CN(C)[C@@H]1C(O)=C(C(N)=O)C(=O)[C@@]2(O)C(O)=C3C(=O)c4c(O)cccc4[C@@](C)(O)[C@H]3C[C@@H]12 [tetracycline]
- duration of the clogging transition (τ): no effect
